How the values were obtained:
F9 teratocarcinoma cells = test: Northern blot of mRAR RNAs in F9 cells after RA treatment (densitometric scanning); assay type: cell-based, mouse
[1] = test system: mRAR-α (mouse retinoic acid receptor α, expression vector mRAR-αO); test: RA-dependent transcriptional transactivation of (TRE₃)₃-tk-CAT reporter in co-transfected HeLa cells (CAT activity); assay type: cell-based; details: same concentrations as RA; data not shown
Description: (§1) (mRAR-αO, mRAR-βO and mRAR-γO, respectively) and co-transfected into HeLa cells with a reporter plasmid, (TRE₃)₃-tk-CAT, containing a RA responsive element. […] In Fig. 3 HeLa cells were co-transfected as described in example 2 [Petkovich, M., Brand, N. J., Krust, A. & Chambon, P. Nature 330, 444-450 (1987); Brand, N., Petkovich, M., Krust, A., Chambon, P., de The, H., Marchio, A., Tiollais, P. & Dejean, A. Nature 332, 850-853 (1988)] with pSG5-based expression vectors [Green, S., Issemann, I. & Scheer, E. Nucleic Acids Res. 16, 369 (1988)] containing the entire cDNA of either mRAR-α (mRAR-αO), β (mRAR-βO) or γ (mRAR-γO), and a reporter plasmid, (TRE₃)₃-tk-CAT, carrying a synthetic RA responsive element (RARE). 24 hours after transfection, cells were fed with media containing increasing concentrations of RA as indicated (from 0 to 1x10⁻⁶ M, lanes 1-8, respectively) and harvested 48 hours post-transfection for determination of CAT activity. […] No obvious difference was observed between the dose responsiveness of mRAR-α and β, in contrast with previous results obtained with human chimeric constructs in which the C region of hRAR-α and β was replaced by the corresponding region of the human oestrogen receptor [Brand, N., Petkovich, M., Krust, A., Chambon, P., de The, H., Marchio, A., Tiollais, P. & Dejean, A. Nature 332, 850-853 (1988)]. The reason for these differences is unknown, but may be related to the use of a different and less sensitive responsive element in the present study. Direct determination of the true affinity of RAR-α, β and γ for RA must await direct binding measurements in vitro in the absence of the cellular retinoic acid binding protein.
(§2) HeLa cells (∼ 10⁶ per dish) were co-transfected with 0.5 µg of a given mRAR expression vector, 2 µg of reporter plasmid and 2 µg of pCH110 (Pharmacia, a β-galactosidase expression vector used as an internal control to normalize for variations in transfection efficiency). The total amount of transfected DNA was adjusted to 20µg by addition of carrier DNA (BSM13+). […]

[2] = test system: mRAR-β (mouse retinoic acid receptor β, expression vector mRAR-βO); test: as above; assay type: cell-based; details: same concentrations as RA; data not shown
Description: as §1, §2

[3] = test system: mRAR-γ (mouse retinoic acid receptor γ, expression vector mRAR-γO); test: as above; assay type: cell-based; details: same concentrations as RA; data not shown
Description: as §1, §2

[4] = test system: hRAR-γ (human retinoic acid receptor γ, hRAR-γD cDNA in pSG5 = hRAR-γ0); test: RA-dependent transcriptional activation of (TRE₃)₃-tk-CAT reporter by hRAR-γ0 in HeLa cells (CAT activity); assay type: cell-based; details: data not shown
Experimental: To test the ability of hRAR-γ to activate transcription, hRAR-γD cDNA was subcloned into the eukaryotic expression vector pSG5 [Green, S., Issemann, I. & Scheer, E. Nucleic Acids Res. 16, 369 (1988)] as described in Example 6, to give hRAR-γ0 which was co-transfected into HeLa cells along with a reporter plasmid, (TRE₃)₃-tk-CAT, which contains a synthetic RA responsive element as described in Example 6. The transfected cells were exposed (24 hour post transfection) to increasing concentrations of RA, and RA-induced activation of transcription was evaluated 48 hours after transfection by determining the CAT activity expressed from the reporter gene.
The entire 1.5 kb insert from the hRAR-γD clone was inserted into the EcoRI site of the eukaryotic expression vector pSG5 [Green, S., Issemann, I. & Scheer, E. Nucleic Acids Res. 16, 369 (1988)], to yield hRAR-γ0. 500 ng of hRAR-γ0 was transfected into HeLa cells along with 2 µg of the (TRE₃)₃-tk-CAT reporter plasmid, 2 µg of a β-galactosidase expressing plasmid pCH110 (to normalize for variations in transfection efficiency) and 15 µg of carrier DNA (BSM13+) as described [Petkovich, M., Brand, N. J., Krust, A. & Chambon, P. Nature 330, 444-450 (1987)]. 24 hours following transfection, the cells were exposed for an additional 24 hour to RA for retinol with concentrations ranging from 10⁻¹¹M to 10⁻⁶. […]

| Compound | fold induction at 0.33 µM (F9 teratocarcinoma cells; Mus musculus, F9, read-out: induction of mRAR-β RNA) | decrease of mRAR-γ RNA (F9 teratocarcinoma cells; RA 3.3x10⁻⁷M, 24 and 48 hours) | transactivation efficiency compared with RA [1] | transactivation efficiency compared with RA [2] | transactivation efficiency compared with RA [3] | potency as activator compared with all-trans or 13-cis retinoic acid [4] |
| --- | --- | --- | --- | --- | --- | --- |
| CC1=C(/C=C/C(C)=C/C=C/C(C)=C/C(=O)O)C(C)(C)CCC1 [RA, retinoic acid] | ≥ 30 | 2 fold |  |  |  |  |
| CC1=C(/C=C/C(C)=C/C=C/C(C)=C/CO)C(C)(C)CCC1 [retinol] |  |  | much less efficient | much less efficient | much less efficient | much less potent activator |
